Measurements from ChEMBL document CHEMBL4507259 (2021).

Key:
[1] = target: Casein kinase I isoform epsilon (Homo sapiens) (UniProt P49674); settings: Compound concentration 1000.0 nM
[2] = target: Mitogen-activated protein kinase kinase kinase 3 (Homo sapiens) (UniProt Q99759); settings: Compound concentration 1000.0 nM
[3] = target: Serine/threonine-protein kinase haspin (Homo sapiens) (UniProt Q8TF76); settings: Compound concentration 1000.0 nM
[4] = target: Histamine H1 receptor (Homo sapiens) (UniProt P35367); experiment: H1 (h) CEREP ligand profiling; settings: filed as antagonist, Compound concentration 10.0 uM
[5] = target: Receptor tyrosine-protein kinase erbB-4 (Homo sapiens) (UniProt Q15303); settings: Compound concentration 1000.0 nM
[6] = target: Serine/threonine-protein kinase 32B (Homo sapiens) (UniProt Q9NY57); settings: Compound concentration 1000.0 nM
[7] = target: Insulin receptor-related protein (Homo sapiens) (UniProt P14616); settings: Compound concentration 1000.0 nM
[8] = target: Sigma non-opioid intracellular receptor 1 (Homo sapiens) (UniProt Q99720); experiment: sigma (non-selective) (h) CEREP ligand profiling; settings: filed as agonist, Compound concentration 10.0 uM
[9] = target: Non-receptor tyrosine-protein kinase TYK2 (Homo sapiens) (UniProt P29597); settings: Compound concentration 1000.0 nM
[10] = target: Mitogen-activated protein kinase 7 (Homo sapiens) (UniProt Q13164); settings: Compound concentration 1000.0 nM
[11] = target: Serine/threonine-protein kinase RIO1 (Homo sapiens) (UniProt Q9BRS2); settings: Compound concentration 1000.0 nM
[12] = target: Serine/threonine-protein kinase D3 (Homo sapiens) (UniProt O94806); settings: Compound concentration 1000.0 nM
[13] = target: Serine/threonine-protein kinase 17B (Homo sapiens) (UniProt O94768); settings: Compound concentration 1000.0 nM
[14] = target: Wee1-like protein kinase 2 (Homo sapiens) (UniProt P0C1S8); settings: Compound concentration 1000.0 nM
[15] = target: Mitogen-activated protein kinase kinase kinase 2 (Homo sapiens) (UniProt Q9Y2U5); settings: Compound concentration 1000.0 nM
[16] = target: Mitogen-activated protein kinase kinase kinase 10 (Homo sapiens) (UniProt Q02779); settings: Compound concentration 1000.0 nM
[17] = target: 3-phosphoinositide-dependent protein kinase 1 (Homo sapiens) (UniProt O15530); settings: Compound concentration 1000.0 nM
[18] = target: Discoidin domain-containing receptor 2 (Homo sapiens) (UniProt Q16832); settings: Compound concentration 1000.0 nM
[19] = test system: Tyrosine-protein kinase ABL1 (Homo sapiens), P00519 [E255K]; settings: Compound concentration 1000.0 nM
[20] = target: GABA-A receptor; anion channel (Rattus norvegicus) (UniProt O09028+P15431+P18506+P18508+P19969+P20236+P23574+P23576+P28471+P28473+P30191+P62813+P63079+P63138+Q91ZM7+Q9ES14); settings: Compound concentration 10.0 uM
[21] = target: 1-phosphatidylinositol 3-phosphate 5-kinase (Homo sapiens) (UniProt Q9Y2I7); settings: Compound concentration 1000.0 nM
[22] = target: T1, Muscarinic acetylcholine receptor M4 (Homo sapiens) (UniProt P08173); experiment: M4 (h) CEREP ligand profiling; settings: filed as antagonist, Compound concentration 10.0 uM
T1 sequence (whole entry): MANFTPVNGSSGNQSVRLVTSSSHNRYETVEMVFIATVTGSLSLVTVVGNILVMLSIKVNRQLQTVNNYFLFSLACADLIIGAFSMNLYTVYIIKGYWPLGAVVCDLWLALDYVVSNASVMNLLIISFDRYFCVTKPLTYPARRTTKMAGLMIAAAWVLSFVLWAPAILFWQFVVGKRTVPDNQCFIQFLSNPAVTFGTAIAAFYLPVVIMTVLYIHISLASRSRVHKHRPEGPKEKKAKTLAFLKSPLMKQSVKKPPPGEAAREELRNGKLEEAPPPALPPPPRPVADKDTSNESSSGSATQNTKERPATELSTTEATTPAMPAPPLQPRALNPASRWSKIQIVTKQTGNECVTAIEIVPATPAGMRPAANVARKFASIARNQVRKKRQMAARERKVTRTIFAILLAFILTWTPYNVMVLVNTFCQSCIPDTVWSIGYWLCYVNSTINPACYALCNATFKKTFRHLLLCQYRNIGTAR

[23] = target: Platelet-derived growth factor receptor beta (Homo sapiens) (UniProt P09619); settings: Compound concentration 1000.0 nM
[24] = test system: Fibroblast growth factor receptor 3 (Homo sapiens), P22607 [G697C]; settings: Compound concentration 1000.0 nM
[25] = target: 5-hydroxytryptamine receptor 2A (Homo sapiens) (UniProt P28223); settings: Compound concentration 10.0 uM
[26] = target: Tyrosine-protein kinase Fgr (Homo sapiens) (UniProt P09769); settings: Compound concentration 1000.0 nM
[27] = target: Serine/threonine-protein kinase PRP4 homolog (Homo sapiens) (UniProt Q13523); settings: Compound concentration 1000.0 nM
[28] = target: Calcium/calmodulin-dependent protein kinase type II subunit gamma (Homo sapiens) (UniProt Q13555); settings: Compound concentration 1000.0 nM
[29] = target: Maternal embryonic leucine zipper kinase (Homo sapiens) (UniProt Q14680); settings: Compound concentration 1000.0 nM
[30] = target: Tyrosine-protein kinase Lck (Homo sapiens) (UniProt P06239); settings: Compound concentration 1000.0 nM
[31] = target: Proto-oncogene tyrosine-protein kinase receptor Ret (Homo sapiens) (UniProt P07949); settings: Compound concentration 1000.0 nM
[32] = target: Vascular endothelial growth factor receptor 1 (Homo sapiens) (UniProt P17948); settings: Compound concentration 1000.0 nM
[33] = target: Macrophage-stimulating protein receptor (Homo sapiens) (UniProt Q04912); settings: Compound concentration 1000.0 nM
[34] = target: Calcium/calmodulin-dependent protein kinase kinase 2 (Homo sapiens) (UniProt Q96RR4); settings: Compound concentration 1000.0 nM
[35] = target: Acetylcholinesterase (Homo sapiens) (UniProt P22303); experiment: acetylcholinesterase (h) CEREP ligand profiling; settings: Compound concentration 10.0 uM
[36] = target: Ribosomal protein S6 kinase alpha-6 (Homo sapiens) (UniProt Q9UK32); settings: Compound concentration 1000.0 nM
[37] = target: Serine/threonine-protein kinase Sgk3 (Homo sapiens) (UniProt Q96BR1); settings: Compound concentration 1000.0 nM

Mitogen-activated protein kinase kinase kinase 10 (Homo sapiens), sequence (Q02779 whole entry, looked up): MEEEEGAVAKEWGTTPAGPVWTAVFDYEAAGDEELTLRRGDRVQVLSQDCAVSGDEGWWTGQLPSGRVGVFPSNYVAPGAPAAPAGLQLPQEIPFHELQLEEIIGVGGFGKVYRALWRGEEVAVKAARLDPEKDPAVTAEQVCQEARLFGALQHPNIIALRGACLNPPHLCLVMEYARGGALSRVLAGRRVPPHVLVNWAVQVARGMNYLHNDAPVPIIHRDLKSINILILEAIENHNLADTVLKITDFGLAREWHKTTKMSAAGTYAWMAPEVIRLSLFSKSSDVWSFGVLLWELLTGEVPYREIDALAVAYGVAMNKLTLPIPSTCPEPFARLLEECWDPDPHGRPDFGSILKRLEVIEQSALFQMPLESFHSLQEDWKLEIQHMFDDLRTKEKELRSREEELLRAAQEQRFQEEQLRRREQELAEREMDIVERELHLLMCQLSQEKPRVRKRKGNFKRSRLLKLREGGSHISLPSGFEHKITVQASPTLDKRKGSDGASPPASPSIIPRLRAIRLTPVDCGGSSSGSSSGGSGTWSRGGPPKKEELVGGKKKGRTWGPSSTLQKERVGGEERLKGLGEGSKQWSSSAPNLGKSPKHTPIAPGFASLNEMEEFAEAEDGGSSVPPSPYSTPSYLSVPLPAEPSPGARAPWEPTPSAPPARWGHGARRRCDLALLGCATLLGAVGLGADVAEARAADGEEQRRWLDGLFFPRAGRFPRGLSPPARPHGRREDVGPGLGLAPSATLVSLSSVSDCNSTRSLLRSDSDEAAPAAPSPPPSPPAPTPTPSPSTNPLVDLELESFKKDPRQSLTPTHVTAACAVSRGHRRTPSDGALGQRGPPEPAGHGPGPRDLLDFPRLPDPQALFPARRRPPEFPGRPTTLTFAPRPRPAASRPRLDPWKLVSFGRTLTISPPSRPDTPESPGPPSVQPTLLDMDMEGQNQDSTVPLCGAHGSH
Sigma non-opioid intracellular receptor 1 (Homo sapiens), sequence (Q99720 whole entry): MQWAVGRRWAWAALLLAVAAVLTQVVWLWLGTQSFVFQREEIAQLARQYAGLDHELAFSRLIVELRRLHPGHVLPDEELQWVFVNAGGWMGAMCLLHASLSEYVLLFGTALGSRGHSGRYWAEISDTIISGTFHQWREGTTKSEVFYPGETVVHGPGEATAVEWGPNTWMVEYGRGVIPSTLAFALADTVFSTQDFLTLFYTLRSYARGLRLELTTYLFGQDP
Mitogen-activated protein kinase kinase kinase 2 (Homo sapiens), sequence (Q9Y2U5 whole entry): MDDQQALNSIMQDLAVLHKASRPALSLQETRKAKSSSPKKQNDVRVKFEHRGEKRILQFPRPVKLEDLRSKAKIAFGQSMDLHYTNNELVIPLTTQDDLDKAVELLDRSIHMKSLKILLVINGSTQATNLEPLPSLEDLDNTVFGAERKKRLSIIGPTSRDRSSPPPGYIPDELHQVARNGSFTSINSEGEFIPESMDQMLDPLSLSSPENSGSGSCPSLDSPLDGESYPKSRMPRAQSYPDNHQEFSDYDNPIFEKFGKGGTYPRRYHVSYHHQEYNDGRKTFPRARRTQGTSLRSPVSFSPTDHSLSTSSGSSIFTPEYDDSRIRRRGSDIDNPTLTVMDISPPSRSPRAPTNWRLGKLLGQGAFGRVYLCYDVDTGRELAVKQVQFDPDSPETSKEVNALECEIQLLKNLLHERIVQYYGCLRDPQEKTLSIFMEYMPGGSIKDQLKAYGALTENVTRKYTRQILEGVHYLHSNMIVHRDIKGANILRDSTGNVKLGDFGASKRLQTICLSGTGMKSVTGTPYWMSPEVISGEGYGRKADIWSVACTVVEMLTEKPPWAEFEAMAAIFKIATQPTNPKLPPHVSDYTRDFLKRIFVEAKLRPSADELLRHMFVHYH
Insulin receptor-related protein (Homo sapiens), sequence (P14616 27-742 limits assumed): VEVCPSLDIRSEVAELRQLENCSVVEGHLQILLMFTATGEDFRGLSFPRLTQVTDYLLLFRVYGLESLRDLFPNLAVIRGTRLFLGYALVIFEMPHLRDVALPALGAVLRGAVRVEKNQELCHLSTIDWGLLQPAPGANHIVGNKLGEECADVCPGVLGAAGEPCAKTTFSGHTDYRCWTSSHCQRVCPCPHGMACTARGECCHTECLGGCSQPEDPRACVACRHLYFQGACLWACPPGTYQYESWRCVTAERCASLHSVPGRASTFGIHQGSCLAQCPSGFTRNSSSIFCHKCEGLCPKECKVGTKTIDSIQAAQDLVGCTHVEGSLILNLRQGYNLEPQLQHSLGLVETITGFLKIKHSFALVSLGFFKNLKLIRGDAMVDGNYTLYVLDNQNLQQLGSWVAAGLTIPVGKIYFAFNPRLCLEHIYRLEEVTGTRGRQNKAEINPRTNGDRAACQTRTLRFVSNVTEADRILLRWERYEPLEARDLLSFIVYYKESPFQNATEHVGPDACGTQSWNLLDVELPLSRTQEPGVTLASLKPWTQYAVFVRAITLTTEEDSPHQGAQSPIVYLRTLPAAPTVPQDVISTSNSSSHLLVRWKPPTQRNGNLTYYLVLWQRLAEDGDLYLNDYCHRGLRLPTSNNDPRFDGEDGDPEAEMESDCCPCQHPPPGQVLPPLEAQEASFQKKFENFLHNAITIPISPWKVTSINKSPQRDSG
Insulin receptor-related protein (Homo sapiens), sequence (P14616 747-1297 limits assumed): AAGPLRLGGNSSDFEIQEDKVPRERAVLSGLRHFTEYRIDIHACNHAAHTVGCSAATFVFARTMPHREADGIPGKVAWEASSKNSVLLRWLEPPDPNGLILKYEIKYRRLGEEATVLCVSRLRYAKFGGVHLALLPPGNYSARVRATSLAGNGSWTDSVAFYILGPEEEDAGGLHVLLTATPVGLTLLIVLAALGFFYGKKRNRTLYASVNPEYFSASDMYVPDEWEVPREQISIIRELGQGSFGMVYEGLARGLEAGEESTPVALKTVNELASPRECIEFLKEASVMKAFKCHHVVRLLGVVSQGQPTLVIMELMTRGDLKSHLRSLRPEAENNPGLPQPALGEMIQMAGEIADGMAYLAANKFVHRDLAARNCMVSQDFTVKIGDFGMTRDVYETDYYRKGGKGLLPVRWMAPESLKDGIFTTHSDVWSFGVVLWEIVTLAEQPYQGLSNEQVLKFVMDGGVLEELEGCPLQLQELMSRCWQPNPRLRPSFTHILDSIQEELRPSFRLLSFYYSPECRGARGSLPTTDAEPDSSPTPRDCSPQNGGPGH
Macrophage-stimulating protein receptor (Homo sapiens), sequence (Q04912 25-304 limits assumed): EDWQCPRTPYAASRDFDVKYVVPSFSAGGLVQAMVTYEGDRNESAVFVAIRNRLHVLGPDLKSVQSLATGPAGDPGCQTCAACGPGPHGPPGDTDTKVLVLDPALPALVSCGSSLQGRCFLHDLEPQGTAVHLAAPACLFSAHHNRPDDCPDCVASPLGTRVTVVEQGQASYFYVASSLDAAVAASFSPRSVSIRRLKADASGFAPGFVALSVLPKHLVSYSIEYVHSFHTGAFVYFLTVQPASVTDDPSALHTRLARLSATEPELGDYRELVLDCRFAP
Macrophage-stimulating protein receptor (Homo sapiens), sequence (Q04912 310-1400 limits assumed): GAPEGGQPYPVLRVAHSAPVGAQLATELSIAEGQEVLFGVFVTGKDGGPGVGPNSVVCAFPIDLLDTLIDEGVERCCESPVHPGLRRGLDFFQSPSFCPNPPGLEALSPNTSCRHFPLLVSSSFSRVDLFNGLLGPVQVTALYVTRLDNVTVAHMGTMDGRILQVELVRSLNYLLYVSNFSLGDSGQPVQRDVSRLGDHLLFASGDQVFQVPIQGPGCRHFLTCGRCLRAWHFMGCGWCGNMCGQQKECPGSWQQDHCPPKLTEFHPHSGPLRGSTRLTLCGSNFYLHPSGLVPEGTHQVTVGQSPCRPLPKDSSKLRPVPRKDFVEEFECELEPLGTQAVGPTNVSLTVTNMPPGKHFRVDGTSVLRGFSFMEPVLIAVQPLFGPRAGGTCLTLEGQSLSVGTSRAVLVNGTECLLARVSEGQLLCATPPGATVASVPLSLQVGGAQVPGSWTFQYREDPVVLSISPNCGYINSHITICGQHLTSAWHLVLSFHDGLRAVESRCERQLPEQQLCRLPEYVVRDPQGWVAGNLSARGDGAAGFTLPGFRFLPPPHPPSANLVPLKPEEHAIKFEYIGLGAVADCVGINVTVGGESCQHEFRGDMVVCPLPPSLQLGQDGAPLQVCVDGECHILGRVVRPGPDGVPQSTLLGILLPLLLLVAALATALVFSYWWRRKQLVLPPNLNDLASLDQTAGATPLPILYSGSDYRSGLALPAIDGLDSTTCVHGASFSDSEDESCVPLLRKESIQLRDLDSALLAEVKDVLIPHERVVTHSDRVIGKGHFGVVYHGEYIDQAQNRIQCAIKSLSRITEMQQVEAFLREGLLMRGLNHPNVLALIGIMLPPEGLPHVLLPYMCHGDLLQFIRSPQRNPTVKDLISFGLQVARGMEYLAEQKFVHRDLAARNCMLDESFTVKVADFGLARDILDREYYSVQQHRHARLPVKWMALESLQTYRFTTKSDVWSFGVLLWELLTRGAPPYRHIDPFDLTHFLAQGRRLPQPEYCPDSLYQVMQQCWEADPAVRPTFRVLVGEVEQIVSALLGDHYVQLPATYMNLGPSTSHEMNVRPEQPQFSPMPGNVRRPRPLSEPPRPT
Serine/threonine-protein kinase 32B (Homo sapiens), sequence (Q9NY57 whole entry): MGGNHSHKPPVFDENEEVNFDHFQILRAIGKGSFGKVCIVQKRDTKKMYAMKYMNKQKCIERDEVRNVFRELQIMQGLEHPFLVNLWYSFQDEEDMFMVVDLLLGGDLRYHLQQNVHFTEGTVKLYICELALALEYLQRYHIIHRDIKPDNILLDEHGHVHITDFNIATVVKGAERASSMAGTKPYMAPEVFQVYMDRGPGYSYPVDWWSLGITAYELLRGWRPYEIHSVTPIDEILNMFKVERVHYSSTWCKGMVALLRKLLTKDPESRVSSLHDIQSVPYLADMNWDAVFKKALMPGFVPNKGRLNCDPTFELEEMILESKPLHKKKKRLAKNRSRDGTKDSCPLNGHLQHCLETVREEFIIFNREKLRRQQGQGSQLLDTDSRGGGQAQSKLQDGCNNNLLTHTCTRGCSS

CNC(=O)Nc1ccc2c(c1)CC[C@@]21OC(=O)N(CC(=O)N(Cc2ccc(F)cc2)[C@@H](C)C(F)(F)F)C1=O [A-485]
inactive: residual activity [1] 80% | residual activity [2] 86% | residual activity [3] 100% | inhibition [4] 22% | residual activity [5] 100% | residual activity [6] 90% | residual activity [7] 96% | inhibition [8] -3% | residual activity [9] 86% | residual activity [10] 60% | residual activity [11] 100% | residual activity [12] 100% | residual activity [13] 100% | residual activity [14] 75% | residual activity [15] 100% | residual activity [16] 57% | residual activity [17] 88% | residual activity [18] 75% | residual activity [19] 75% | inhibition [20] 19.7% | residual activity [21] 58% | inhibition [22] 14% | residual activity [23] 100% | residual activity [24] 79% | inhibition [25] 34.6% | residual activity [26] 75% | residual activity [27] 86% | residual activity [28] 76% | residual activity [29] 91% | residual activity [30] 84% | residual activity [31] 90% | residual activity [32] 100% | residual activity [33] 77% | residual activity [34] 76% | inhibition [35] -1% | residual activity [36] 81% | residual activity [37] 68%

CNC(=O)Nc1ccc2c(c1)[C@@]1(CC2)OC(=O)N(CC(=O)N(Cc2ccc(F)cc2)[C@@H](C)C(F)(F)F)C1=O [A-486]
inactive: residual activity [1] 80% | residual activity [2] 75% | residual activity [3] 83% | inhibition [4] 7% | residual activity [5] 100% | residual activity [6] 67% | residual activity [7] 100% | inhibition [8] 7% | residual activity [9] 68% | residual activity [10] 85% | residual activity [11] 100% | residual activity [12] 100% | residual activity [13] 77% | residual activity [14] 100% | residual activity [15] 100% | residual activity [16] 73% | residual activity [17] 85% | residual activity [18] 100% | residual activity [19] 100% | inhibition [20] 15.6% | residual activity [21] 72% | inhibition [22] 6% | residual activity [23] 87% | residual activity [24] 96% | inhibition [25] 26.6% | residual activity [26] 88% | residual activity [27] 90% | residual activity [28] 98% | residual activity [29] 100% | residual activity [30] 86% | residual activity [31] 93% | residual activity [32] 100% | residual activity [33] 100% | residual activity [34] 99% | inhibition [35] 8% | residual activity [36] 82% | residual activity [37] 72%
